The values that follow come from patent US20120010158A1, “TUMOR NECROSIS FACTOR INHIBITING PEPTIDES AND USES THEREOF” (PANACEA BIOTEC LTD., priority 2008, published 2012).

Residues, ends and D or L forms follow the SMILES beside them.

Data set [1] relates to collagen induced arthritis. In words: Murine model of collagen induced arthritis. It counts as in vivo, C57BL/6 mice. The following applies: for anticollagen IgG1/IgG2a ratio after therapy: vs PBS treated arthritic animals, FIG. 8b. How it is done:
Male C57BL/6 mice obtained from animal house at Lalru, Panacea Biotec were used to develop a murine model of rheumatoid arthritis. Mice were intradermally immunized with 150 μg of chicken type-II collagen (Sigma) emulsified in complete Freunds adjuvant (CFA) (Sigma). On day 17 after primary immunization, a booster immunization with 100 μg of chick type II collagen in incomplete Freunds adjuvant was administered to animals (Ethan M Shevach, Curr. Prot. Immunol. 2002: 15.0.1-15.0.6; Inglis J et al, 2008 Nature Protocols, 4:612-618). Increase in paw thickness as compared to controls (healthy, male C57BL/6 mice) and presence of anti-collagen IgG antibodies were the parameters to assess development of arthritis. Paw thickness in animals was measured using digital Vernier Calipers and anticollagen antibodies were measured in the mouse serum on day 35 after immunization.
Chicken type-II collagen (sigma) was coated onto ELISA plates at 1 μg/ml in PBS and incubated overnight at 4° C. After three washes in PBS-0.05% Tween 20 (PBS-T), serum from collagen, vehicle (CFA) and PBS (control) injected mice was added to separate wells at dilution of 1:100. Plate was incubated at room temperature for 2 h. After 5 washes in PBS-T rabbit antimouse IgG HRP (Bethyl Laboratories) was added to wells at 1:10000 dilutions and incubated at room temperature for 45 min. After washing the plate in PBS-T, OPD (ortho-phenyl diamine) as substrate was added and colour development observed. Colour development was stopped by 2N HCl. Absorbance was recorded at 490 nm (Ethan M Shevach, Cum Prot. Immunol. 2002: 15.0.1-15.0.6).
Determination of optimum dose and schedule of peptide with Sequence ID-6 was performed in a murine model of collagen induced arthritis (as prepared above). Arthritic mice were randomized according to paw thickness and divided into separate groups of 4-5 animals for intravenous administration of peptide sequence ID-6.
Efficacy of peptide with sequence ID-6 and sequence ID-2 was compared with Etanercept (Marketed and approved TNF-alpha inhibiting agent with the brand name “Enbrel”) using a murine model of collagen induced arthritis (As prepared and described above). Peptides of Sequence ID-6, Sequence ID-2 and Etanercept were intravenously administered to the arthritic mice at a dose of 5 mg/kg three times in first week followed by once every week for three weeks.
Development of disease in collagen induced arthritis is accompanied by an increase in Th1 or proinflammatory response. IgG1/IgG2a levels were measured to determine that whether treatment with the peptides of the present invention and Etanercept improved clinical disease in murine model by decreasing Th1 response. Lower IgG1/IgG2a ratio would indicate down regulation of Th1 or proinflammatory response.

Data set [2] concerns adjuvant induced arthritis. The experiment in a line: Rat model of adjuvant induced arthritis. The following applies: 2.5 mg/kg once every day for 6 days, then 3 doses every alternate day; for clinical score: p<0.05, score 0-4, FIG. 9b; for paw thickness: vs PBS treated arthritic rats, FIG. 9a. It counts as in vivo, Wistar rats. The protocol: In vivo efficacy of peptide with sequence ID-6 was evaluated in a rat model of “adjuvant” induced arthritis. This model is widely used for developing and testing anti-inflammatory drugs. Adjuvant arthritis (AA) in rats mimics features of inflammatory arthritis in humans (Pearson et al, 1956, Proc. Soc. Exp. Biol. Med. 112:95-10). AA was induced in male Wistar rats by intradermal immunization with 150 μg of complete freunds adjuvant followed by a booster immunization at day 7 with incomplete freunds adjuvant. Arthritis was evaluated in animals by clinical scoring and measurement of paw and joint thickness using digital vernier calipers. The clinical score was assigned according to following criteria: 0=no erythema or swelling 1=slight erythema or swelling of one of toes or fingers 2=erythema and swelling of more than one toe or finger 3=erythema and swelling of the ankle or wrist 4=complete erythema and swelling of toes or fingers and ankle or wrist and inability to bend the ankle or wrist. Arthritic rats were administered with peptide Sequence ID-6 at a dose of 2.5 mg/kg, once every day for 6 days in the first week followed by 3 doses every alternate day in the second week. Another group of arthritic animals received Etanercept (Et) in similar manner.

The target in data set [3] is T1, TNF-R1 (Homo sapiens, UniProt P19438).
T1 construct: endogenous in cells; host or cells: U937
T1 sequence (P19438 30-455): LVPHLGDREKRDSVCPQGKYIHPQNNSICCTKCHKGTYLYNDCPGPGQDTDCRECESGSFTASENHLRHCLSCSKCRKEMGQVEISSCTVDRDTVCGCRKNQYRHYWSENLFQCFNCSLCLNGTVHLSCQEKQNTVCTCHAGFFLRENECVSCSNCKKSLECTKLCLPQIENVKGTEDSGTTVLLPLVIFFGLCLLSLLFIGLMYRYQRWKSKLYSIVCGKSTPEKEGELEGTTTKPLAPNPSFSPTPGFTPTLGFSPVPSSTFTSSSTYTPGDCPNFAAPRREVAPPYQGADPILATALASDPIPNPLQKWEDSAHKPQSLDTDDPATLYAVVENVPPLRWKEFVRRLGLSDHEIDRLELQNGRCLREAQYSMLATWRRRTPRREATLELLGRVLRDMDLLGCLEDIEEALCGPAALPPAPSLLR
The experiment in a line: Binding of peptide to TNF-R1 on U937 cells by flow cytometry. The note with it: untreated 83%. The source says:
(§1) Flow cytometry assay technique was used to investigate binding of peptides to TNF-α or TNF-R1 employing U937 cells (a TNF-receptor expressing human leukemia cell line). Binding of peptide to TNF-α prevents TNF-α from interacting with TNF-R1 which can be analyzed by flow cytometry. Similarly, direct binding of peptide with TNF-R1 reduces percent TNF-R1 positive cells which can be analyzed by flow cytometry.
U937 cells were used to quantify the binding of peptides to TNF-R 1. TNF-alpha upon addition to U937 cells binds to its cognate receptor TNF-R1 on U937 cells leading to a reduction in percent cells positive for TNF-R1. TNF-alpha inhibiting peptides according to present invention bind to TNF-R1 and reduce the TNF-R1 positive cells after incubation of U937 cells with said peptides.
Peptide of Sequence ID-6 was analyzed for binding of peptide to TNF-R1 on U937 cells using flow cytometry. […] After two washes in binding buffer, the cells were analyzed using FACS Calibur flow cytometer (Becton Dickinson). The gates were set on the live cell population, and the degree of binding to TNF-R1 was calculated on the basis of percent cells positive for TNF-RI expression.

The target in data set [4] is T2, TNF-alpha (Homo sapiens, UniProt P01375).
Experimental: (§2) The peptides of the present invention were analyzed for inhibition of TNF-alpha induced cytotoxicity employing murine fibroblast cell line, L929. Addition of TNF-alpha to L929 cells (ATCC) induces cytotoxicity, which can be estimated by staining of viable cells with vital dyes like MTT (3-(4,5-Dimethylthiazol-2-yl)-2,5-diphenyltetrazolium bromide, a tetrazole) or crystal violet followed by extraction of dyes with methanol. […] The assay was performed as follows:
(§3) L929 cells (maintained in Dulbecco's modified Eagle's medium supplemented with 10% FCS) were seeded at a density of 2×10^5 cells/ml in a microtitre plates, and incubated with actinomycin D (ACT-D) at concentration of 1 μg/ml for 2 h at 37° C. and 5% CO2. TNF-α (100 pg/ml) preincubated with 75 μM of peptide solution at 37° C. was added to L929 cells and incubated overnight at 37° C., 5% CO2. […]
(§4) The live cells of test and positive control plates were then stained with 100 μl/well of 0.05% crystal violet and incubated at room temperature for 15 min., washed with PBS and kept for overnight drying at room temperature. Crystal violet was extracted from the cells by 100 μl per well of methanol and absorbance of extracted crystal violet dye was estimated at 595 nm. Percent inhibition in cytotoxicity was calculated by the following formula: […]
Data set [5] deals with T2, TNF-alpha. The experiment in a line: Inhibition of TNF-α binding to its receptor TNF-R1 on U937 cells (flow cytometry). The following applies: U937 cells with complex of peptide and TNF-alpha (5 ng); untreated 78±1%, TNF-alpha alone 32±10%. The arrangement: host or cells: U937 cells carry the partner receptor endogenously.
Source text: as §1
TNF-alpha binds to its cognate receptor TNF-R1 on U937 cells (ATCC) leading to a reduction in percent cells positive for TNF-R1. TNF-alpha binding peptides bind to TNF-alpha and prevent the interaction of TNF-alpha with TNF-R1. The percent cells positive for TNF-R1 can be quantified by staining with fluorochrome conjugated anti-TNF-R1 antibody.
Peptides of Sequence ID-2 and Sequence ID-6 were analyzed for inhibition of TNF-alpha binding to its receptor TNF-R1 on U937 cells. Inhibition of TNF-alpha binding to TNF-RI on U937 cells by peptides with sequence ID-2 or sequence ID-6 was estimated, using fluorescent activated cell sorter (FACS, FACSCALIBUR, Becton Dickinson, USA). […]

In data set [6] the target is T2, TNF-alpha. In words: Inhibition of TNF-alpha mediated cytotoxicity of L-929 cells (crystal violet).
Experimental: as §2, §3, §4
[7] abbreviates: 5 mg/kg i.v. three times in first week then once every week for three weeks, pre vs post treatment, Example 5(d), FIG. 8a.
[8] abbreviates: 5 mg/kg i.v. three times in first week then once every week for three weeks.

T2 sequence (P01375 77-233 limits assumed, species assumed): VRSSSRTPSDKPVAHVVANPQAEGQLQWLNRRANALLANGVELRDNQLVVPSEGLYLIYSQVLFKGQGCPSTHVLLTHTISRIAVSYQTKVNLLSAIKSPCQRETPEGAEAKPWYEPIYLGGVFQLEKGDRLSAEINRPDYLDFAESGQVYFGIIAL

On to Etanercept [reference compound], for which the paw thickness result in data set [1] (setting [7]) is “significant lowering of paw thickness”. In data set [1] (setting [8]), the “anticollagen IgG1/IgG2a ratio after therapy” value is “lower ratio of IgG1/IgG2a”. In data set [2], the clinical score result was “significant lowering of clinical score” and the paw thickness entry is on record as “Lowering of paw thickness”.
Take `NC(=O)C[C@H](NC(=O)[C@@H](N)CO)C(=O)N[C@@H](Cc1ccc(O)cc1)C(=O)O` [Sequence ID-6, Ser--Asn--Tyr] (H-Ser-Asn-Tyr-OH; N-terminus assumed): the “percent cells positive for TNF-R1” value in data set [3] (U937 cells incubated with peptide 250 μM) is listed as 32%; in data set [5] it was 57±8%. In addition, the paw thickness result in data set [1] (setting [7]) is “significant lowering of paw thickness”; in data set [1] (5 mg/kg i.v. thrice weekly followed by once every week for 3 wks, Example 5(c), FIG. 7), “significant reduction of paw thickness”; in data set [1] (7.5 mg/kg i.v. once every week for 4 wks, Example 5(c), FIG. 7), “insignificant lowering of paw thickness”; in data set [2], “Lowering of paw thickness”. The “anticollagen IgG1/IgG2a ratio after therapy” value in data set [1] (setting [8]) is “lower ratio of IgG1/IgG2a”. Besides, the clinical score result in data set [2] is given as “significant lowering of clinical score”. In addition, the “ability to inhibit TNF-alpha induced cytotoxicity compared with Etanercept” value in data set [4] is listed as “comparable ability”.
Regarding TNF-alpha, the “percent cells positive for TNF-R1” value in data set [3] (U937 cells incubated with recombinant TNF-alpha 10 ng) stood at 31.6%.
A word on the inhibition: it is how much of the control response was suppressed. A high value points to a strong effect. Compound `CC(C)C[C@@H]1NC(=O)[C@H](Cc2ccc(O)cc2)NC(=O)[C@H](CCC(N)=O)NC(=O)[C@H](CO)NC(=O)[C@H](Cc2c[nH]c3ccccc23)NC(=O)[C@@H](NC(=O)[C@@H](N)Cc2ccc(O)cc2)CSSC[C@@H](C(=O)N[C@@H](Cc2ccc(O)cc2)C(=O)O)NC1=O` [Cyclic WSQYL, cy Trp-Ser-Gln-Tyr-Leu CY] displayed an inhibition at 75 µM in data set [6] of 60 ± 10%.
